Results reported in US20090036516A1, “COMPOUNDS FOR TREATING METABOLIC SYNDROME” (CTG PHARMA S.R.L., priority 2003, published 2009).

Tests used:
[1] = test system: patients with type II diabetes; conditions: single parenteral dose of 1,000 mg; cited from earlier work
diabetic neuropathy = conditions: intravenous 600 mg a day for 3 weeks; cited from earlier work
[2] = test system: patients with type II diabetes; conditions: oral 600 mg once to 3 times a day; cited from earlier work
male Wistar rats = assay: oxidative stress-induced (BSO) hypertension in rats; type: in vivo; conditions: BSO 30 mmol/L/day in drinking water for seven days; compound 50 mg/kg/day for seven days
Source text: It is widely known that metabolic syndrome is generally accompanied by oxidative stress. Also in the paper of Ogihara (Ogihara T. et al. “Oxidative stress induces insulin resistance by activating the nuclear factor-kB pathway and disrupting normal subcellular distribution of phosphatidylinositol 3-kinase” in Diabetologia 47, 794-805 (2004) such relationship was found. The effect of oxidative stress-induced hypertension in rats has been evaluated in male Wistar rats (10 animals/group). Hypertension was induced by oral administration of buthionine sulphoximine (BSO) (30 mmol/L/day) to the drinking water for seven days.
Compounds of examples 2, 3 and 5 suspended in the vehicle at the dose of 50 mg/kg/day were administered for seven days and some parameters measured in the experiments are reported in table 2.

[3] = test system: high-fat diet fed insulin resistant mice; assay: hyperinsulinemic euglycemic clamp in high-fat diet fed insulin resistant mice; type: in vivo; conditions: 50 mg/kg/day by gavage for 7 days; steady state phase of hyperinsulinemic euglycemic clamp; n = 8
Description: The effects of administration of 50 mg/kg/day of the compound of Example 2, by gavages to high-fat diet fed insulin resistant mice [Cook et al. Diabetes, 53:2067-72, 2004] for 7 days, in terms of glucose infusion rate (mg/kg per min, during the steady state phase of hyperinsulinemic euglycemic clamp studies) were reported in the following table 1: […]

SMILES | glucose utilization [1] | symptomatic complaints (diabetic neuropathy) | insulin sensitivity [2] | % Increase systolic blood pressure (male Wistar rats) [%] | % Plasma glutathione decrease (male Wistar rats) [%] | Endothelium function (% contraction induced by acetylcholine) (male Wistar rats) [%] | glucose infusion rate [3] [mg/kg per min]
O=C(O)CCCC[C@@H]1CCSS1 (racemic) [lipoic acid] | distinct improvement | decreased | able to influence the insulin sensitivity |  |  |  | 
O=C(Oc1ccc(-c2cc(=S)ss2)cc1)c1ccccc1O [Cpd Ex 8, 2-hydroxybenzoic acid 4-(thioxo-5H-[1,2]dithiol-3-yl)-phenyl ester] |  |  |  | 15 | 7 | 80 | 
CCOC(=O)c1ccccc1OC(=O)CCCCC1CCSS1 (stereo not shown) [Cpd Ex 6, 2-(5-[1,2]Dithiolan-3-yl-pentanoyloxy)-benzoic acid ethyl ester] |  |  |  | 50 | 20 | 60 | 
CC(=O)Oc1ccccc1C(=O)Oc1ccc(-c2cc(=S)ss2)cc1 [Cpd Ex 5, 2-acetoxy-benzoic acid 4-(thioxo-5H-[1,2]dithiol-3-yl)-phenyl ester] |  |  |  | 10 | 5 | 88 | 86.4
